Data as given in PubChem BioAssay AID248 (DTP/NCI, 2004).
“And” between values parts separate entries of the source, which are not always exact repeats. Equal entries are not always repeated. Toxic doses and inconclusive results are not listed.

Test system: L1210 leukemia ip in BDF1 mice, survival T/C
Test: NCI In Vivo Anticancer Drug Screen. Data for tumor model L1210 Leukemia (intraperitoneal) in B6D2F1 (BDF1) mice
Details: endpoint: mean survival time, higher = longer survival
Method in brief: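 Each compound was tested against a transplantable tumor grown in mice. The endpoint was survival, with treated animals benchmarked against vehicle controls as a simple ratio.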

[1] = dose: 100.0 mg/kg/injection, schedule: Q01DX001 (ip), vehicle: saline
[2] = dose: 200.0 mg/kg/injection, schedule: Q01DX001 (ip), vehicle: saline
[3] = dose: 400.0 mg/kg/injection, schedule: Q01DX001 (ip), vehicle: saline
[4] = dose: 100.0 mg/kg/injection, schedule: Q01DX009 (ip), vehicle: Klucel (hydroxypropylcellulose) (HPC)
[5] = dose: 100.0 mg/kg/injection, schedule: Q01DX009 (ip), vehicle: saline
[6] = dose: 100.0 mg/kg/injection, schedule: Q04DX003 (ip), vehicle: saline
[7] = dose: 200.0 mg/kg/injection, schedule: Q01DX009 (ip), vehicle: Klucel (hydroxypropylcellulose) (HPC)
[8] = dose: 200.0 mg/kg/injection, schedule: Q04DX003 (ip), vehicle: saline
[9] = dose: 400.0 mg/kg/injection, schedule: Q01DX009 (ip), vehicle: Klucel (hydroxypropylcellulose) (HPC)
[10] = dose: 400.0 mg/kg/injection, schedule: Q04DX003 (ip), vehicle: saline
[11] = dose: 100.0 mg/kg/injection, schedule: Q04DX003 (ip), vehicle: saline with Tween-80
[12] = dose: 200.0 mg/kg/injection, schedule: Q04DX003 (ip), vehicle: saline with Tween-80
[13] = dose: 400.0 mg/kg/injection, schedule: Q04DX003 (ip), vehicle: saline with Tween-80
[14] = dose: 100.0 mg/kg/injection, schedule: Q01DX001 (ip), vehicle: Klucel (hydroxypropylcellulose) (HPC)
[15] = dose: 100.0 mg/kg/injection, schedule: Q01DX009 (ip), vehicle: saline with Tween-80
[16] = dose: 200.0 mg/kg/injection, schedule: Q01DX009 (ip), vehicle: saline with Tween-80
[17] = dose: 400.0 mg/kg/injection, schedule: Q01DX009 (ip), vehicle: saline with Tween-80

O=S1(=O)C2CCCCC2(N2CCOCC2)C1c1ccccc1 (configuration not stated)
T/C (dose: 66.0 mg/kg/injection, schedule: Q04DX003 (ip), vehicle: other): 118 % of control
T/C (dose: 100.0 mg/kg/injection, schedule: Q01DX009 (ip), vehicle: other): 97 % of control
T/C (dose: 100.0 mg/kg/injection, schedule: Q04DX003 (ip), vehicle: other): 101 % of control and 202 % of control
T/C (dose: 150.0 mg/kg/injection, schedule: Q04DX003 (ip), vehicle: other): 93 % of control
T/C (dose: 200.0 mg/kg/injection, schedule: Q01DX009 (ip), vehicle: other): 97 % of control
T/C (dose: 200.0 mg/kg/injection, schedule: Q04DX003 (ip), vehicle: other): 97 % of control
T/C (dose: 400.0 mg/kg/injection, schedule: Q01DX009 (ip), vehicle: other): 100 % of control
T/C (dose: 400.0 mg/kg/injection, schedule: Q04DX003 (ip), vehicle: other): 94 % of control

CCCCCCCC(Cc1ccccc1)C(N)=O (configuration not stated)
T/C [1]: 97 % of control
T/C [2]: 92 % of control
T/C [3]: 92 % of control

Nc1cc(Br)cc2[nH]c(=O)c3cc(Br)ccc3c12
T/C (dose: 100.0 mg/kg/injection, schedule: Q01DX001 (ip), vehicle: carboxymethylcellulose (CMC)): 100 % of control
T/C (dose: 200.0 mg/kg/injection, schedule: Q01DX001 (ip), vehicle: carboxymethylcellulose (CMC)): 100 % of control
T/C (dose: 400.0 mg/kg/injection, schedule: Q01DX001 (ip), vehicle: carboxymethylcellulose (CMC)): 102 % of control

CCOC(=O)c1ccc(=O)[nH]c1
T/C [4]: 102 % of control
T/C [5]: 88 % of control
T/C (dose: 100.0 mg/kg/injection, schedule: Q04DX003 (ip), vehicle: Klucel (hydroxypropylcellulose) (HPC)): 96 % of control
T/C [6]: 116 % of control and 100 % of control
T/C [7]: 100 % of control
T/C (dose: 200.0 mg/kg/injection, schedule: Q01DX009 (ip), vehicle: saline): 96 % of control
T/C (dose: 200.0 mg/kg/injection, schedule: Q04DX003 (ip), vehicle: Klucel (hydroxypropylcellulose) (HPC)): 98 % of control
T/C [8]: 101 % of control and 100 % of control
T/C [9]: 95 % of control
T/C (dose: 400.0 mg/kg/injection, schedule: Q01DX009 (ip), vehicle: saline): 93 % of control
T/C (dose: 400.0 mg/kg/injection, schedule: Q04DX003 (ip), vehicle: Klucel (hydroxypropylcellulose) (HPC)): 90 % of control
T/C [10]: 104 % of control and 96 % of control

Nc1ncc(N)c(N)n1
T/C (dose: 21.0 mg/kg/injection, schedule: Q01DX Z (ip), vehicle: saline): 101 % of control
T/C (dose: 25.0 mg/kg/injection, schedule: Q01DX Z (ip), vehicle: carboxymethylcellulose (CMC)): 109 % of control
T/C (dose: 31.0 mg/kg/injection, schedule: Q01DX Z (ip), vehicle: saline): 106 % of control
T/C (dose: 47.0 mg/kg/injection, schedule: Q01DX Z (ip), vehicle: saline): 121 % of control
T/C (dose: 50.0 mg/kg/injection, schedule: Q01DX001 (ip), vehicle: saline): 106 % of control
T/C [1]: 103 % of control
T/C [6]: 112 % of control
T/C (dose: 117.0 mg/kg/injection, schedule: Q01DX009 (ip), vehicle: saline with Tween-80): 116 % of control
T/C (dose: 125.0 mg/kg/injection, schedule: Q01DX001 (ip), vehicle: carboxymethylcellulose (CMC)): 101 % of control and 118 % of control
T/C (dose: 125.0 mg/kg/injection, schedule: Q## X001 (ip), vehicle: carboxymethylcellulose (CMC)): 110 % of control
T/C [2]: 103 % of control
T/C [8]: 117 % of control
T/C (dose: 240.0 mg/kg/injection, schedule: Q04DX003 (ip), vehicle: saline): 111 % of control
T/C (dose: 250.0 mg/kg/injection, schedule: Q01DX001 (ip), vehicle: carboxymethylcellulose (CMC)): 102 % of control and 108 % of control
T/C (dose: 250.0 mg/kg/injection, schedule: Q## X001 (ip), vehicle: carboxymethylcellulose (CMC)): 111 % of control
T/C (dose: 360.0 mg/kg/injection, schedule: Q01DX Z (ip), vehicle: carboxymethylcellulose (CMC)): 159 % of control
T/C (dose: 360.0 mg/kg/injection, schedule: Q04DX003 (ip), vehicle: saline): 108 % of control
T/C [3]: 97 % of control
T/C [10]: 118 % of control
T/C (dose: 500.0 mg/kg/injection, schedule: Q01DX001 (ip), vehicle: carboxymethylcellulose (CMC)): 98 % of control and 117 % of control
T/C (dose: 500.0 mg/kg/injection, schedule: Q01DX Z (ip), vehicle: carboxymethylcellulose (CMC)): 160 % of control
T/C (dose: 500.0 mg/kg/injection, schedule: Q## X001 (ip), vehicle: carboxymethylcellulose (CMC)): 105 % of control
T/C (dose: 810.0 mg/kg/injection, schedule: Q01DX Z (ip), vehicle: saline): 86 % of control
T/C (dose: 1000.0 mg/kg/injection, schedule: Q01DX001 (ip), vehicle: carboxymethylcellulose (CMC)): 102 % of control and 112 % of control
T/C (dose: 1000.0 mg/kg/injection, schedule: Q## X001 (ip), vehicle: carboxymethylcellulose (CMC)): 98 % of control

COc1cccc(-n2cc(C#N)c3c(C)cc(C)nc32)c1
T/C [1]: 87 % of control
T/C [2]: 91 % of control
T/C [3]: 87 % of control

COc1c2c(c(OC)c3c1C(=O)c1ccccc1C3=O)CC(C(C)=O)CC2 (configuration not stated)
T/C [11]: 94 % of control
T/C [12]: 92 % of control
T/C [13]: 92 % of control

COC(=O)C(CCC(=O)OC(C)(C)C)NC(=O)C(F)(F)F (configuration not stated)
T/C (dose: 50.0 mg/kg/injection, schedule: Q01DX001 (ip), vehicle: Klucel (hydroxypropylcellulose) (HPC)): 94 % of control
T/C [14]: 100 % of control
T/C (dose: 200.0 mg/kg/injection, schedule: Q01DX001 (ip), vehicle: Klucel (hydroxypropylcellulose) (HPC)): 97 % of control

CSc1ccc(OCC2CO2)cc1C (configuration not stated)
T/C (dose: 100.0 mg/kg/injection, schedule: Q04DX002 (ip), vehicle: saline): 96 % of control
T/C (dose: 200.0 mg/kg/injection, schedule: Q04DX002 (ip), vehicle: saline): 111 % of control
T/C (dose: 400.0 mg/kg/injection, schedule: Q04DX002 (ip), vehicle: saline): 104 % of control

COP(=O)(OC)OCc1cnc(SC)nc1N
T/C (dose: 25.0 mg/kg/injection, schedule: Q01DX009 (ip), vehicle: saline): 100 % of control
T/C (dose: 25.0 mg/kg/injection, schedule: Q04DX003 (ip), vehicle: saline): 100 % of control
T/C (dose: 50.0 mg/kg/injection, schedule: Q01DX009 (ip), vehicle: saline): 102 % of control
T/C (dose: 50.0 mg/kg/injection, schedule: Q04DX003 (ip), vehicle: saline): 105 % of control
T/C [5]: 98 % of control
T/C [6]: 101 % of control and 102 % of control

[CH3][Sb]([CH3])([CH3])([O]C(=O)CF)[O]C(=O)CF
T/C (dose: 1.25 mg/kg/injection, schedule: Q04DX003 (ip), vehicle: saline with Tween-80): 91 % of control
T/C (dose: 2.5 mg/kg/injection, schedule: Q04DX003 (ip), vehicle: saline with Tween-80): 96 % of control
T/C (dose: 5.0 mg/kg/injection, schedule: Q04DX003 (ip), vehicle: saline with Tween-80): 110 % of control
T/C (dose: 5.0 mg/kg/injection, schedule: Q04DX003 (ip), vehicle: saline): 107 % of control

CN1CCC2(CC1)C(=O)N(CC1COc3ccccc3O1)C(=O)C2c1ccccc1 (configuration not stated)
T/C [14]: 99 % of control

Cc1cccc(OC(F)(F)C(F)Cl)c1 (configuration not stated)
T/C [15]: 94 % of control
T/C [11]: 93 % of control
T/C [16]: 92 % of control
T/C [12]: 93 % of control
T/C [17]: 100 % of control
T/C [13]: 95 % of control

O=C(Cc1ccc(Cl)cc1)NC(NC(=O)Cc1ccc(Cl)cc1)C(Cl)(Cl)Cl
T/C [4]: 102 % of control
T/C [7]: 96 % of control
T/C [9]: 88 % of control

O=C(O)CSc1ccc(NC(=O)NC2CCCCC2)cc1
T/C [15]: 96 % of control
T/C (dose: 100.0 mg/kg/injection, schedule: Q04DX003 (ip), vehicle: saline sonified): 114 % of control
T/C [16]: 91 % of control
T/C (dose: 200.0 mg/kg/injection, schedule: Q04DX003 (ip), vehicle: saline sonified): 89 % of control
T/C [17]: 88 % of control
T/C (dose: 400.0 mg/kg/injection, schedule: Q04DX003 (ip), vehicle: saline sonified): 96 % of control

NCCc1ccc(Nc2ccnc3cc(Cl)ccc23)cc1
T/C (dose: 75.0 mg/kg/injection, schedule: Q01DX001 (ip), vehicle: saline): 109 % of control
T/C (dose: 150.0 mg/kg/injection, schedule: Q01DX001 (ip), vehicle: saline): 101 % of control
T/C (dose: 300.0 mg/kg/injection, schedule: Q01DX001 (ip), vehicle: saline): 98 % of control
